According to paper PMC4257840 (Journal of Medicinal Chemistry, 2014):
Where two headings read alike, the source gives them in different places.

Columns and labels:
[1] = molecular target: T1, angiotensin converting enzyme from rabbit lung (Oryctolagus cuniculus, UniProt P12822); assay: Protease counter-screening: Angiotensin converting enzyme; format: biochemical
T1 construct: rabbit lung; from tissue; host or cells: rabbit lung
Description: (§1) Appendix 7. Protease Counter -Screening
(§2) Protease counter-screeni ng was performed using the methods described below. Initial screening was conducted in duplicate using a single test substance concentration of 10 µ M .
(§3) Additional assays were conducted in replicate for selected pairin gs of test s ubstance and enz yme in order to enable the determination of IC50 values using conventional procedures.
(§4) Determination of K i was made using the Batch K i program (Biokin Ltd, Pullman, WA) to derive values from the Morrison equation: […]
MMP-9: Human recombinant MMP-9 proenz yme ex pressed in mammalian cells was activated with APMA for 60 min at 37 °C. […] The amount of MCA-P LG formed was read spectrofluorimetricall y at 340 nm/400 nm.
ADAM-17/TACE: Human recombinant ADAM-17 expressed in Sf21 insect cells was used as enz yme sour ce. […] T he amount of MCA-P LAQA formed w as read spectro fluorimetricall y at 340 nm/400 nm.
Angiotensin converting enzyme: Test compound or vehicle was pre- incubated in modified HEPES buffer pH 7.5 for 15 min at 25 °C with 31 mU/mL angiotensin converting enz yme from rabbit lung. […] The amount of substrate remaining was read spectrophotometricall y at 340 nm and used to deri ve the extent of reaction and its inhibition. […]

[2] = molecular target: T2, human recombinant caspase 1 (Homo sapiens, UniProt P29466); assay: Protease counter-screening: Caspase 1; format: biochemical
T2 construct: host or cells: E. coli
T2 sequence (P29466 120-297 limits assumed): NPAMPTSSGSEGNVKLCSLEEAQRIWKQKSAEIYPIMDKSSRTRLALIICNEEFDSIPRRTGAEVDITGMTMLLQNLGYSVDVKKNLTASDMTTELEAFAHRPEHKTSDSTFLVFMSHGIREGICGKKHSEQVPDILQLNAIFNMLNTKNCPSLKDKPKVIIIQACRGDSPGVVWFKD
T2 sequence (P29466 317-404 limits assumed): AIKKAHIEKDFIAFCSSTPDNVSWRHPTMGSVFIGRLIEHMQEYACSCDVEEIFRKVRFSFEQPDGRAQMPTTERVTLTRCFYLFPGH
Description: as §1, §2, §3, §4
Where [E ] is the active enz yme concentration, Kiapp is the apparent inhibition const ant, v 0 is the control velocit y in the absence of inhibitors, vb is the background velocity, v is the initial reaction velocit y in the presence of inhibitor, and I is the inhibitor concentration.Thence:
Where [S ] is the substrate concentration and KM is the Michealis constant. […]
by addition of 50 µM Ac-DEVD-AMC for another 60 min incubation period. The amount of AMC formed was determined fluorimetricall y (excitation 360 nm/emission 465 nm). […]
by addition of 25 µM Ac-LEH D-A FC for another 60 min incubation period. The amount of amino-4- trifluorometh ylcoumarin (AFC) formed determined fluorimetrically (400nm/ 510nm).
Cathepsin C: Cathepsin C from bovine spleen was used as the source of enz yme. […] T he amount of AMC product formed was read spectrofluorimetrically

[3] = Pharmacokinetics after oral and iv dosing to rats; format: in vivo, Sprague-Dawley rat; settings: rat
Description: Appendix 2. Pharmaco kinetics an d P l a s ma Protein Binding […]
Pharma cokinetics. In vivo PK characteristics were determined using non- fasted Sprague-Dawle y rats (mal e, 200-300 g, 10- 16 weeks of age) with groups of three animals per route per compound. Soluble formulations were developed and verified b y HP LC/UV s o that compounds were dosed discretel y b y the iv (1 mg/kg, 1 mL/kg) and po (5 mg/kg, 5 mL/kg) routes. Blood samples were obtained at various times after dosing and plasma prepared for LC -MS-MS quantification of the test substance after inclusion of an intern al standard . PK p aramet ers were calculated usin g a non -compartmental model in WinNonlin v5.2.
Plasma Protein Binding Assay. PPB was determined with a Rapid Equilibrium Dialysis device using 8 kDa molecular weight cut-off inserts (Fisher Scientific UK Ltd, Leicest ershire, UK) as described b y the manufacturer. R at (Sprague Dawl e y strain) plasma EDTA K2 (mixed gender, pooled, SeraLab, West Sussex, UK) was thawed and centrifuged at 13,000 x g for 10 min to remove precipitates before being spiked with compounds (5 µM). The concentrations of compounds in the plasma and buffer chambers were determined b y LC -MS-MS (AB Sciex 3200 QTrap) anal ysis after 4 h incubation at 37 °C. Binding was calculated from the concentration percentage in both chambers as shown below. Assays were p erfo rmed in replicate and the data

human liver Cat B = human liver Cat B (Homo sapiens, UniProt P07858); assay: Cathepsin B inhibition assay
Description: Inhibition of Cat B was measured as described with modifications.[25] […] Progress curves were followed at 30 °C by detection of fluorescence at 320/420 nm (excitation/emission).
In all cases, for reactions involving inhibitors, the amount of reaction buffer was adjusted to 60 μL, the inhibitor added as a 10 μL aliquot, and incubated for 20 min with the enzyme prior to reaction start.

T1 sequence (P12822 34-1310): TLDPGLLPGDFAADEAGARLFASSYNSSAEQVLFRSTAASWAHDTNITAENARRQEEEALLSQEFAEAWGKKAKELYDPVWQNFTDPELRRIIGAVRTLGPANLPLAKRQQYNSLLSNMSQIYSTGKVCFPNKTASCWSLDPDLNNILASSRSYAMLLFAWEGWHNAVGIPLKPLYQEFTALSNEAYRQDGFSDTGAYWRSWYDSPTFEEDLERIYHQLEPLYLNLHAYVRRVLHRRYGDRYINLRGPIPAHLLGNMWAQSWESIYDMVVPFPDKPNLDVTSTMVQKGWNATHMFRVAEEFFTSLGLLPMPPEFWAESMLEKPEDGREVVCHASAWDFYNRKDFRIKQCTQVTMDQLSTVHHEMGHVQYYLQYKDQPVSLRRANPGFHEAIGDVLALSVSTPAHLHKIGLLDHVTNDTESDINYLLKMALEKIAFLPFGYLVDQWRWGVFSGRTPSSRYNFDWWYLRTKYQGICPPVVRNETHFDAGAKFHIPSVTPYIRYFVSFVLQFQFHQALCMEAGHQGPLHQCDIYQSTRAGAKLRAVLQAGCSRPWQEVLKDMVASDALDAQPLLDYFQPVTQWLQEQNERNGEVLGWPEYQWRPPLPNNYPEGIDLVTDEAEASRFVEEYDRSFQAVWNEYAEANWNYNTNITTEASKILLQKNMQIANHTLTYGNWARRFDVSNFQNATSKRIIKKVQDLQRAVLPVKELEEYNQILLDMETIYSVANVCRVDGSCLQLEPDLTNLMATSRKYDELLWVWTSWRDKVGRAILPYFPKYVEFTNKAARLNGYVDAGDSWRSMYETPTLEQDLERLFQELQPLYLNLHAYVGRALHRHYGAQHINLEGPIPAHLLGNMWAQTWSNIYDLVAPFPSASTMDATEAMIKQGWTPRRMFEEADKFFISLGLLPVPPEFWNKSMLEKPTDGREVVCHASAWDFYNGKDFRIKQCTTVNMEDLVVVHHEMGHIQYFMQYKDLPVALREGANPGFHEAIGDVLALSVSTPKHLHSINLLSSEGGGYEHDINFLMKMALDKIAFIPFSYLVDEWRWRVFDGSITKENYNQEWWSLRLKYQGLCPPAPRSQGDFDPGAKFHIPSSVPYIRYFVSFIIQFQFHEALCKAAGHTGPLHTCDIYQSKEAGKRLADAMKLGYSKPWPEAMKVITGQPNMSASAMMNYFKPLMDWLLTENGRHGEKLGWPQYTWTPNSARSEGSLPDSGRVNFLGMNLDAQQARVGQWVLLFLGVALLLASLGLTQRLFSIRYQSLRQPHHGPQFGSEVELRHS

Structure (SMILES): CC(C)[C@H](NC(=O)[C@H](C)NC(=O)[C@@H](NC(=O)c1ccccc1)C(C)(C)C)C(=O)C(=O)NCc1ccccc1 [Compound 38, N-{(S)-1-[(S)-1-((S)-1-Benzylaminooxalyl-2-methyl-propylcarbamoyl)-ethylcarbamoyl]-2,2-dimethyl-propyl}-benzamide]
- inhibition at 10 µM [1]: 0%
- inhibition at 10 µM [2]: 8%
- Cmax ([3]; male, Sprague-Dawley, plasma, 5 mg/kg po, mean ± SE, n = 3): 732 ± 3 nM
- bioavailability ([3]; male, Sprague-Dawley, plasma, po, 5 mg/kg, 5 mg/kg po compared with 1 mg/kg iv, nonfasted Sprague–Dawley rats, mean ± SE, n = 3, read-out: F % (bioavailability)): 33 ± 8%
- free conc Cmax ([3]; 5 mg/kg po): 29 ± 0 nM
- IC50 (human liver Cat B; read-out: Cat B IC50, mean ± SE): 512 ± 59 nM
- IC50 (human liver Cat B; read-out: Cathepsin B IC50, Table S1 counter-screening): 510 nM
